Results as given in US20200172913A1, “PEPTIDES AND NANOPARTICLES FOR INTRACELLULAR DELIVERY OF VIRUS” (priority 2017, published 2020).
Where no end group is shown, it is not given here.

Experiments:
293 T cells = assay: AAV-2/PEP-1 peptide particle stability (serum, heparin), GFP expressing cells by flow cytometry; type: cell-based; settings: for effect of the modification on AAV/PEP-1 complex stability in serum: high concentration of serum; for reduction of the level of GFP expressing cells (efficacy): particles incubated 1 hour in 50% serum, 50 μM peptide, AAV-2 MOI of 300
Description: Stock solutions of peptides were prepared at 2 mg/mL in distilled water or 5% DMSO and sonicated for 10 min in a water bath sonicator then diluted just before use. AAV-2 encoding green fluorescent protein at MOI of 300 was pre-incubated in low salt medium with PEP-1 peptides containing either a specific targeting motif, a PEG or Dopamine moiety at a concentration of 50 μM for 30 min. The AAV-2/peptide particle stability was evaluated in different conditions. Particles were incubated for 1 hour in DMEM medium containing 10, 20 to 50% serum (FSC) or in the presence of heparin (5 and 10 μg). Then AAV alone or PEP-1/AAV complexes were added to cultured 293 T cells in a 24 well plate format. Cells were treated with either free AAV-2 or Peptide/AAV-2 complexes for 4 h, and then the medium was replaced with fresh medium. Viral mediated transgene expression was monitored 2 days post-infection. GFP expressing cells were detected by flow cytometry.

HCN2 cells [1] = assay: AAV-8-GFP transduction with CPPs, flow cytometry; type: cell-based, human; settings: 200 μM CPP, AAV-8 MOI of 1000, HCN2; 5% in the absence of CPP
Description: (§1) In this example different AAV serotypes including AAV 1, AAV2, AAV5, AAV6, AAV8 and AAV9 were tested against human hepatocytes (HepG2) and human neuronal cells (HCN2) in the presence or in the absence of CPPs including ADGN-103a, ADGN-103b, ADGN-100, ADGN-109, ADGN-106, PEP-1, PEP-2, CADY, and TAT-HA2.
(§2) AAV-1, AAV-2, AAV-5, and AAV-6 viruses encoding green fluorescent protein were obtained from Cell Biolabs Inc and AAV-8 from Vector Biolabs. Stock solutions of virus were obtained at 1χ10^13 GC/ml in PBS/0.01% and diluted 50-fold to 2×10^11 GC/ml before use.
(§3) AAV-1, AAV-2, AAV-5, and AAV6 encoding green fluorescent protein were used at low MOI of 500 (1-2×10^7 PFU) and AAV-8 at MOI of 1000 (2-4×10^7 PFU). HepG2 and HCN2 cells (1 10^6 cells per well) were cultured in a 24 well plate culture dish format. For MOI of 1000, 5 μl of AAV virus diluted solutions were preincubated in PBS with increasing concentration of CPPs ranging from 0.1 to 200 μM for 30 min. For MOI of 500, 2.5 μl of AAV virus diluted solutions were preincubated in PBS with increasing concentration of CPPs ranging from 0.1 to 200 μM for 30 min. 200 μl of AAV or CPP/AAV complex solutions were added to cultured cells (1×10^6 cells per well). Cells are treated with either free AAV or CPP/AAV complexes for 4 h. and then the medium is replaced with fresh medium.
(§4) Viral mediated transgene expression was monitored by flow cytomety 2 days post-infection in HepG2 and Human neuronal HCN2. The percentage of GFP expressing cells were detected by flow cytometry and the increase of AAV infectivity was calculated based on the number of GFP-positive cells. Results are reported in FIGS. 5A-5D, 6A-6D, 7A-7D, 8A-8D, and 9A-9D.

HepG2 cells [2] = assay: AAV-8-GFP transduction with CPPs, flow cytometry; type: cell-based, human; settings: 200 μM CPP, AAV-8 MOI of 1000, HepG2; 5% in the absence of CPP
Description: as §1, §2, §3, §4

HCN2 cells [3] = assay: AAV-2-GFP transduction with CPPs, flow cytometry; type: cell-based, human; settings: 200 μM CPP
Description: as §1, §2, §3, §4

HepG2 cells [4] = assay: AAV-2-GFP transduction with CPPs, flow cytometry; type: cell-based, human; settings: 200 μM CPP
Description: as §1, §2, §3, §4

HCN2 cells [5] = assay: AAV-1-GFP transduction with CPPs, flow cytometry; type: cell-based, human; settings: 200 μM CPP
Description: as §1, §2, §3, §4

HepG2 cells [6] = assay: AAV-1-GFP transduction with CPPs, flow cytometry; type: cell-based, human; settings: 200 μM CPP, AAV-1 MOI of 500, HepG2; 5% in the absence of CPP
Description: as §1, §2, §3, §4

HCN2 cells [7] = assay: AAV-6-GFP transduction with CPPs, flow cytometry; type: cell-based, human
Description: as §1, §2, §3, §4

HepG2 cells [8] = assay: AAV-6-GFP transduction with CPPs, flow cytometry; type: cell-based, human; settings: 200 μM CPP, AAV-6 MOI of 500, HepG2; 5% in the absence of CPP
Description: as §1, §2, §3, §4

HCN2 cells [9] = assay: AAV-5-GFP transduction with CPPs, flow cytometry; type: cell-based, human; settings: 200 μM CPP
Description: as §1, §2, §3, §4

HepG2 cells [10] = assay: AAV-5-GFP transduction with CPPs, flow cytometry; type: cell-based, human; settings: 200 μM CPP
Description: as §1, §2, §3, §4

## DOPA-GGGG-KETWWETWWTEWSQPKKKRKV (GGGGKETWWETWWTEWSQPKKKRKV; not fully specified (N-terminus)) [PEP-1-DOPA, Dopamine added to the N-terminus of PEP-1 using a Gly4 linker]
293 T cells
  effect of the modification on AAV/PEP-1 complex stability in serum: stabilized
  reduction of the level of GFP expressing cells (efficacy): 30%
293 T cells; standard conditions (no serum, no heparin), vs unmodified PEP-1
  increase of efficacy: 40%

## GLWRALWRLLRSLWRLLWKV [CADY, reference compound]
HCN2 cells [1]
  cells expressing GFP: 12%
HepG2 cells [2]
  cells expressing GFP: 15%
HCN2 cells [3]; AAV-2 MOI of 500, HCN2, 4% in the absence of CPP
  cells expressing GFP: 20%
HCN2 cells [3]; MOI of 500, HCN2
  increase of AAV-2 efficiency: 3 fold
HepG2 cells [4]; AAV-2 MOI of 500, HepG2, 4% in the absence of CPP
  cells expressing GFP: 23%
HepG2 cells [4]; MOI of 500, HepG2
  increase of AAV-2 efficiency: 5 fold
HCN2 cells [5]; AAV-1 MOI of 500, HCN2, 5% in the absence of CPP
  cells expressing GFP: 22%
HCN2 cells [5]; MOI of 500, HCN2
  increase of AAV-1 efficiency: 3 fold
HepG2 cells [6]
  cells expressing GFP: 27%
HCN2 cells [7]; 200 μM CPP, MOI of 500, HCN2
  increase of AAV-6 efficiency: 3 fold
HCN2 cells [7]; 200 μM of CPP, AAV-6 MOI of 500, HCN2, 4% in the absence of CPP
  cells expressing GFP: 18%
HepG2 cells [8]
  cells expressing GFP: 29%
HCN2 cells [9]; AAV-5 MOI of 500, HCN2, 5% in the absence of CPP
  cells expressing GFP: 10%
HCN2 cells [9]; MOI of 500, HCN2
  increase of AAV-5 efficiency: 2 fold
HepG2 cells [10]; AAV-5 MOI of 500, HepG2, 5% in the absence of CPP
  cells expressing GFP: 11%
HepG2 cells [10]; MOI of 500, HepG2
  increase of AAV-5 efficiency: 3 fold

## GYVSK-GGGGSKETWWETWWTEWSQPKKKRKV (Ac-GYVSKGGGGSKETWWETWWTEWSQPKKKRKV-cysteamide) [PEP-1 T1]
293 T cells
  effect of the modification on AAV/PEP-1 complex stability in serum: significantly protected
  reduction of the level of GFP expressing cells (efficacy): 27%

## KETWWETWWTEWSQPKKKRKVGGGG-GYVSK (Ac-KETWWETWWTEWSQPKKKRKVGGGGGYVSK-cysteamide) [PEP-1 T2]
293 T cells
  effect of the modification on AAV/PEP-1 complex stability in serum: only a moderate effect
